Experimental data reported in ChEMBL document CHEMBL1201862, “PubChem BioAssay data set” (2004).
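1) Cells in 96-well plates. 2) Compound, 48 h, 5 concentrations. 3) Linear interpolation between surrounding doses. 4) Unreached endpoint = highest concentration. Here, GI50 denotes the concentration required for 50% inhibition of growth.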 Calls of active or inactive are those of the source. Rule as the data show it: active = GI50 up to about 1.1 µM and inactive = higher.

Key:
Assay in all cases: NCI-60 cell line screen, 48 h
UACC-257 = test system: UACC-257
MDA-N = test system: MDA-N
A549 = test system: A549
Malme-3M = test system: Malme-3M
NCI-H460 = test system: NCI-H460
HCT-15 = test system: HCT-15
ACHN = test system: ACHN
EKVX = test system: EKVX
HT-29 = test system: HT-29
SK-OV-3 = test system: SK-OV-3
RPMI-8226 = test system: RPMI-8226
NCI-H522 = test system: NCI-H522
SK-MEL-2 = test system: SK-MEL-2
SNB-75 = test system: SNB-75
NCI-H226 = test system: NCI-H226
KM12 = test system: KM12
SF-539 = test system: SF-539
M14 = test system: M14
DU-145 = test system: DU-145
U-251 = test system: U-251

SMILES	GI50 (UACC-257)	GI50 (MDA-N)	GI50 (A549)	GI50 (Malme-3M)	GI50 (NCI-H460)	GI50 (HCT-15)	GI50 (ACHN)	GI50 (EKVX)	GI50 (HT-29)	GI50 (SK-OV-3)	GI50 (RPMI-8226)	GI50 (NCI-H522)	GI50 (SK-MEL-2)	GI50 (SNB-75)	GI50 (NCI-H226)	GI50 (KM12)	GI50 (SF-539)	GI50 (M14)	GI50 (DU-145)	GI50 (U-251)
COc1ccc(/C=C2/CSC/C(=C/c3ccc(OC)c(OC)c3)C2=O)cc1OC	4.11 µM (inactive)	2.58 µM (inactive)	2.27 µM (inactive)	4.71 µM (inactive)	2.23 µM (inactive)	1.52 µM	2.31 µM (inactive)	5.86 µM (inactive)	1.09 µM (active)	6.73 µM (inactive)	0.472 µM (active)	2.26 µM (inactive)	2.56 µM (inactive)	6.4 µM (inactive)	1.92 µM (inactive)	0.798 µM (active)	2.03 µM (inactive)	3.04 µM (inactive)	2.88 µM (inactive)	1.01 µM (active)
O=C(c1ccco1)N(C(=O)N1CCN(c2ccccc2)CC1)S(=O)(=O)c1ccccc1	32 µM (inactive)	22.5 µM (inactive)	34.4 µM (inactive)	29 µM (inactive)	32.3 µM (inactive)	33.4 µM	24.7 µM (inactive)	22.4 µM (inactive)	35.8 µM (inactive)	> 100 µM (inactive)		18.3 µM (inactive)	18.5 µM (inactive)	24.5 µM (inactive)	26.4 µM (inactive)	37.8 µM (inactive)	19.1 µM (inactive)	23 µM (inactive)	43.7 µM (inactive)	27.4 µM (inactive)
COC(=O)CCC(=O)NC1=C(Nc2ccccc2)C(=O)c2ccccc2C1=O	2.84 µM (inactive)	2.04 µM (inactive)	18.8 µM (inactive)	2.55 µM (inactive)	15.3 µM (inactive)	11.2 µM	14.9 µM (inactive)	16.6 µM (inactive)	16.9 µM (inactive)	12.9 µM (inactive)	13.2 µM (inactive)	14.8 µM (inactive)	5.57 µM (inactive)	18.3 µM (inactive)	14.6 µM (inactive)	15.7 µM (inactive)	13 µM (inactive)	3.58 µM (inactive)	10.8 µM (inactive)	11.7 µM (inactive)
CCOC(=O)C1=CN=C2C(=O)N(c3ccccc3)N(C)C2(C)C1=N (stereo not given)	> 100 µM (inactive)	> 100 µM (inactive)	> 100 µM (inactive)	> 100 µM (inactive)	> 100 µM (inactive)	> 100 µM	> 100 µM (inactive)	> 100 µM (inactive)		> 100 µM (inactive)	> 100 µM (inactive)	> 100 µM (inactive)	> 100 µM (inactive)	> 100 µM (inactive)	> 100 µM (inactive)	> 100 µM (inactive)	> 100 µM (inactive)	> 100 µM (inactive)	> 100 µM (inactive)	> 100 µM (inactive)
CCC1(CC)CC(=NNS(=O)(=O)c2ccc(C)cc2)C1	> 100 µM (inactive)	> 100 µM (inactive)	> 100 µM (inactive)	> 100 µM (inactive)	> 100 µM (inactive)	> 100 µM	> 100 µM (inactive)	> 100 µM (inactive)	> 100 µM (inactive)	> 100 µM (inactive)		> 100 µM (inactive)	> 100 µM (inactive)	> 100 µM (inactive)	> 100 µM (inactive)	> 100 µM (inactive)	> 100 µM (inactive)	> 100 µM (inactive)	> 100 µM (inactive)	> 100 µM (inactive)
COc1ccc2cc1Oc1ccc(cc1)C(Sc1ccccc1)CCOC(=O)CC2 (stereo not given)	> 100 µM (inactive)	> 100 µM (inactive)	> 100 µM (inactive)	> 100 µM (inactive)		18.1 µM	> 100 µM (inactive)	> 100 µM (inactive)	> 100 µM (inactive)	> 100 µM (inactive)	13.4 µM (inactive)	> 100 µM (inactive)	> 100 µM (inactive)	> 100 µM (inactive)	> 100 µM (inactive)	> 100 µM (inactive)	> 100 µM (inactive)	> 100 µM (inactive)	> 100 µM (inactive)	> 100 µM (inactive)
C1=N\CCNCC/N=C/c2ccccc2OCc2cccc(n2)COc2ccccc2/1	29.2 µM (inactive)	3.18 µM (inactive)	> 100 µM (inactive)	11.8 µM (inactive)	33.1 µM (inactive)	4.69 µM	31.2 µM (inactive)	35.5 µM (inactive)	10.7 µM (inactive)	43.3 µM (inactive)	3.77 µM (inactive)	27.5 µM (inactive)	> 44.5 µM (inactive)	9.46 µM (inactive)	26.3 µM (inactive)	20.5 µM (inactive)	2.72 µM (inactive)	8.02 µM (inactive)	26.3 µM (inactive)	6.32 µM (inactive)
CC(=S)NC=C(C(N)=O)C(N)=O	> 100 µM (inactive)	> 100 µM (inactive)	> 100 µM (inactive)	> 100 µM (inactive)		> 100 µM	> 100 µM (inactive)	> 100 µM (inactive)	> 100 µM (inactive)	> 100 µM (inactive)	> 100 µM (inactive)	> 100 µM (inactive)	> 100 µM (inactive)	> 100 µM (inactive)	> 100 µM (inactive)	> 100 µM (inactive)	> 100 µM (inactive)	> 100 µM (inactive)	> 100 µM (inactive)	> 100 µM (inactive)
COC(=O)/N=[N+](\[O-])C(c1ccccc1)c1ccccc1	28.4 µM (inactive)	59.2 µM (inactive)	33.2 µM (inactive)	27.1 µM (inactive)	> 100 µM (inactive)	89.7 µM		27.6 µM (inactive)	> 100 µM (inactive)	> 100 µM (inactive)	38.5 µM (inactive)	> 100 µM (inactive)	43.2 µM (inactive)	82.4 µM (inactive)	38.6 µM (inactive)	> 100 µM (inactive)	> 100 µM (inactive)	31.8 µM (inactive)	42.6 µM (inactive)	> 100 µM (inactive)
COc1cc2c(c(O)c1O)C(=O)C1CCC(=O)N1C2c1cccc2ccccc12 (stereo not given)	> 50 µM (inactive)	> 50 µM (inactive)	30.3 µM (inactive)		> 50 µM (inactive)	> 50 µM	> 50 µM (inactive)	> 50 µM (inactive)	> 50 µM (inactive)	> 50 µM (inactive)	> 50 µM (inactive)	> 50 µM (inactive)	> 50 µM (inactive)	> 50 µM (inactive)	> 50 µM (inactive)	> 50 µM (inactive)	> 50 µM (inactive)	> 50 µM (inactive)	> 50 µM (inactive)	> 50 µM (inactive)
O=C(O)[C@@H]1NC[C@H]2C(Br)=NO[C@H]21	> 100 µM (inactive)	> 100 µM (inactive)	> 100 µM (inactive)	> 100 µM (inactive)	78.2 µM (inactive)	> 100 µM	> 100 µM (inactive)	> 100 µM (inactive)	> 100 µM (inactive)	> 100 µM (inactive)	> 100 µM (inactive)	> 100 µM (inactive)	> 100 µM (inactive)	> 100 µM (inactive)	> 100 µM (inactive)	> 100 µM (inactive)		> 100 µM (inactive)	> 100 µM (inactive)	> 100 µM (inactive)
Cn1nc(C(=O)N2CC(CCl)c3c2cc([N+](=O)[O-])c2ccccc32)cc1NC(=O)Nc1cc(C(=O)N2CC(CCl)c3c2cc([N+](=O)[O-])c2ccccc32)nn1C (stereo not given)	> 100 µM (inactive)	> 100 µM (inactive)	> 100 µM (inactive)	> 100 µM (inactive)	> 100 µM (inactive)	> 100 µM	> 100 µM (inactive)	> 100 µM (inactive)		> 100 µM (inactive)	> 100 µM (inactive)	> 100 µM (inactive)	> 100 µM (inactive)	> 100 µM (inactive)	> 100 µM (inactive)	> 100 µM (inactive)	0.0745 µM (active)	> 100 µM (inactive)	> 100 µM (inactive)	68.9 µM (inactive)
N#C[BH2-][n+]1cn(C2CC(OP(=O)(O)OCC3OC(n4cnc5c(N)ncnc54)CC3O)C(CO)O2)c2nc(N)[nH]c(=O)c21 (stereo not given)	> 100 µM (inactive)	> 100 µM (inactive)	> 100 µM (inactive)	> 100 µM (inactive)	> 100 µM (inactive)	> 100 µM	> 100 µM (inactive)	> 100 µM (inactive)	> 100 µM (inactive)	> 100 µM (inactive)	> 100 µM (inactive)	> 100 µM (inactive)	> 100 µM (inactive)	> 100 µM (inactive)	> 100 µM (inactive)	> 100 µM (inactive)	> 100 µM (inactive)		> 100 µM (inactive)	> 100 µM (inactive)
C=C1C(=O)C=C2C=C3C(=O)C(C)(C)C[C@]3(O)C12C (stereo not given in full)	2.93 µM (inactive)	3.76 µM (inactive)	20 µM (inactive)	1.83 µM (inactive)	18.9 µM (inactive)	2.25 µM	2.23 µM (inactive)	16.1 µM (inactive)	3.27 µM (inactive)	19.3 µM (inactive)	1.21 µM (inactive)	1.61 µM (inactive)	17.8 µM (inactive)	14.2 µM (inactive)	22.1 µM (inactive)	16.2 µM (inactive)	> 43.2 µM (inactive)	1.73 µM (inactive)	18.8 µM (inactive)	17.9 µM (inactive)
